Laboratory results: US20040097408A1, “Compounds regulating cell proliferation and differentiation” (priority 2001, published 2004)

Experiments:
AC236 = experiment: cell count proliferation assay; assay type: cell-based, mouse; parameters: key: +: A positive scoring in these Tables represent cells in which a 2-5 and a 10-40 fold reduction in the total number of cells relative to the control untreated cells was observed after 3 and 7 days of culture with F16, respectively; conditions: AC236, Ras, breast; F16 3 μM, cells counted after 3 and 7 days
From the text: (§1) The following panel of mouse tumor cell lines derived from Neu, Ras and Myc transgenic mice and panel of human cancer cell lines were used: a) Neu-initiated mouse tumor cell lines NF980, NF324-2A, NF324-1B, SMF, NAF, Neu4145, n-Neu, Ras-initiated mouse tumor cell lines SH1,1, AC236, AC711, AC816, ACp53^−#1, ACp53^−4782, AC222, AC99, AC260, ACp53^−#19, ACp53^−#16, AC/Balb6.6, AC/Balb14, AC/Balb12 and Myc-initiated mouse tumor cell lines 16MB9a, 13MA1a; and b) human breast tumor cell lines MDA-MB231, MDA-MB435, MDA-MB436, MDA-MB453, MDA-MB-468, SKBR-3, MCF-7, T47D, ZR75; human prostate cancer cell lines LNCaP, PC-3, DU145 and the human ovarian cancer cell line SKOV-3.
(§2) For each cell line, 10^5 cells were seeded in 4×6 well plates. Next day, F16 was added at 3 μM to the medium of 2 of the plates, while the other two were left untreated (control). Cells were counted 3 days and 7 days after initiation of treatment.
(§3) A positive scoring in these Tables represent cells in which a 2-5 and a 10-40 fold reduction in the total number of cells relative to the control untreated cells was observed after 3 and 7 days of culture with F16, respectively.

AC711 = experiment: cell count proliferation assay; assay type: cell-based, mouse; parameters: key: +: A positive scoring in these Tables represent cells in which a 2-5 and a 10-40 fold reduction in the total number of cells relative to the control untreated cells was observed after 3 and 7 days of culture with F16, respectively; conditions: AC711, Ras, breast; F16 3 μM, cells counted after 3 and 7 days
From the text: as §1, §2, §3

AC816 = experiment: cell count proliferation assay; assay type: cell-based, mouse; parameters: key: +: A positive scoring in these Tables represent cells in which a 2-5 and a 10-40 fold reduction in the total number of cells relative to the control untreated cells was observed after 3 and 7 days of culture with F16, respectively; conditions: AC816, Ras, breast; F16 3 μM, cells counted after 3 and 7 days
From the text: as §1, §2, §3

NAF = experiment: cell count proliferation assay; assay type: cell-based, mouse; parameters: key: +: A positive scoring in these Tables represent cells in which a 2-5 and a 10-40 fold reduction in the total number of cells relative to the control untreated cells was observed after 3 and 7 days of culture with F16, respectively; conditions: Neu, breast, F16 3 μM, cells counted after 3 and 7 days
From the text: as §1, §2, §3

NF324-1B = experiment: cell count proliferation assay; assay type: cell-based, mouse; parameters: key: +: A positive scoring in these Tables represent cells in which a 2-5 and a 10-40 fold reduction in the total number of cells relative to the control untreated cells was observed after 3 and 7 days of culture with F16, respectively; conditions: Neu, breast, F16 3 μM, cells counted after 3 and 7 days
From the text: as §1, §2, §3

NF324-2A = experiment: cell count proliferation assay; assay type: cell-based, mouse; parameters: key: +: A positive scoring in these Tables represent cells in which a 2-5 and a 10-40 fold reduction in the total number of cells relative to the control untreated cells was observed after 3 and 7 days of culture with F16, respectively; conditions: Neu, breast, F16 3 μM, cells counted after 3 and 7 days
From the text: as §1, §2, §3

NF980 = experiment: cell count proliferation assay; assay type: cell-based, mouse; parameters: key: +: A positive scoring in these Tables represent cells in which a 2-5 and a 10-40 fold reduction in the total number of cells relative to the control untreated cells was observed after 3 and 7 days of culture with F16, respectively; conditions: NF980, Neu, breast; F16 3 μM, cells counted after 3 and 7 days
From the text: as §1, §2, §3

Neu4145 = experiment: cell count proliferation assay; assay type: cell-based, mouse; parameters: key: +: A positive scoring in these Tables represent cells in which a 2-5 and a 10-40 fold reduction in the total number of cells relative to the control untreated cells was observed after 3 and 7 days of culture with F16, respectively; conditions: Neu4145, Neu, breast; F16 3 μM, cells counted after 3 and 7 days
From the text: as §1, §2, §3

SH1.1 = experiment: cell count proliferation assay; assay type: cell-based, mouse; parameters: key: +: A positive scoring in these Tables represent cells in which a 2-5 and a 10-40 fold reduction in the total number of cells relative to the control untreated cells was observed after 3 and 7 days of culture with F16, respectively; conditions: SH1.1, Ras, breast; F16 3 μM, cells counted after 3 and 7 days
From the text: as §1, §2, §3

SMF = experiment: cell count proliferation assay; assay type: cell-based, mouse; parameters: key: +: A positive scoring in these Tables represent cells in which a 2-5 and a 10-40 fold reduction in the total number of cells relative to the control untreated cells was observed after 3 and 7 days of culture with F16, respectively; conditions: Neu, breast, F16 3 μM, cells counted after 3 and 7 days
From the text: as §1, §2, §3

n-Neu = experiment: cell count proliferation assay; assay type: cell-based, mouse; parameters: key: +: A positive scoring in these Tables represent cells in which a 2-5 and a 10-40 fold reduction in the total number of cells relative to the control untreated cells was observed after 3 and 7 days of culture with F16, respectively; conditions: breast, F16 3 μM, cells counted after 3 and 7 days
From the text: as §1, §2, §3

[1] = tested on: isolated mouse liver mitochondria; experiment: swelling of isolated mitochondria (permeability transition pore opening); assay type: biochemical; conditions: 0.5 mg/ml mitochondria
Method: Mitochondria were isolated from liver of Balb/c7 mice by standard differential centrifugation, and resuspended in isolation buffer (0.2 M sucrose, 10 mM Tris-MOPS pH 7.4, 0.1 mM EGTA-Tris, 0.1% delipidated BSA) (Costantini et al. (1995) Toxicology (99) 77-88). Protein concentration was determined by Bradford assay. For swelling determination, changes in side scatter at 545±2.5 nm of a 0.5 mg/ml suspension of mitochondria in experimental buffer (125 mM KCl, 10 mM Tris-MOPS pH 7.4, 1 mM Pi, 5 mM glutamate, 2.5 mM malate, 10 μM EGTA-Tris, pH 7.4) were monitored by using LS-50B spectrofluorimeter. […] All reactions were performed at 25° C. and the instrument was equipped with magnetic stirring.

[2] = tested on: Neu, PKB/Akt and MAP kinase in EpH4-A6 cells; experiment: Western blot of Neu-dependent signaling; assay type: cell-based, mouse; conditions: 3 μM F16, FIG. 12
Method: In parallel to the characterization of the effect of F16 on mitochondria homeostasis the effect of F16 on cell signaling was investigated. Control and Neu-overexpressing EpH4-A6 cells were left untreated or treated with 3 μM F16 for 24 and 48 hr. Whole cell lysates were prepared as described above. Samples were immnoblotted with antibodies against Neu, PKB, MAPK, as well as antibodies that react with the phosphorylated forms of the proteins, as described above. Samples were probed with anti-β-actin as loading control, also as described above.

mice = experiment: tolerability of intraperitoneal F16 in mice

Structure (SMILES): C[n+]1ccc(/C=C/c2c[nH]c3ccccc23)cc1.[I-] [F16]
- F16 response (AC236): +
- F16 response (AC711): +
- F16 response (AC816): +
- F16 response (NAF): +
- F16 response (NF324-1B): +
- F16 response (NF324-2A): +
- F16 response (NF980): +
- F16 response (Neu4145): +
- F16 response (SH1.1): +
- F16 response (SMF): +
- F16 response (n-Neu): +
- swelling of purified mitochondria [1]: swelling of purified mitochondria in a dose-dependent fashion
- phosphotyrosine content of Neu, phosphorylated PKB/Akt, and phosphorylated MAP kinase [2]: decreased
- deaths after injection (mice; 50 mg/kg, a few hours after the injection): one mouse out of 5
- maximum tolerable dose (MTD) (mice; intraperitoneal injection, mice): ~50 mg/kg
